From patent publication US6833456B2, “Indolyl-urea derivatives of thienopyridines useful as antiangiogenic agents, and methods for their use” (Agouron Pharmaceuticals, Inc., priority 2002, dated 2004)
“And” between values parts separate entries of the source, which are not always exact repeats. Identical values can stand only once.

Columns and labels:
Mouse PK assay = assay type: in vivo, B6 female mice; conditions: for AUC / Cmax: female, B6, mouse, plasma; for AUC / Cmax / Mouse Cmin, po: po; for Cmax: read-out: Mouse Cmax, po ng-h/mL
Summary of the method: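 Plasma levels were measured by HPLC with UV detection after acetonitrile precipitation, using extracted standards, in blood taken up to 4 h (0.5, 1, 2, 4 h) post-dose. Dosing: 50 mg/kg orally or intraperitoneally to two groups of four female B6 mice, vehicle PEG 400:acidified H2O 30:70 suspension.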

KDR (VEGFR2) = molecular target: T1, KDR (VEGFR2) (Homo sapiens, UniProt P35968); assay: KDR (VEGFR2) phosphorylation in PAE-KDR cells assay; assay type: cell-based; conditions: PAE cells overexpressing human KDR, VEGF stimulated; read-out: PAE KDR autophos IC50
T1 construct: expressed in transfected cells; host or cells: porcine aorta endothelial (PAE) cells
Summary of the method: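 PAE cells overexpressing human KDR, serum-starved 16 h (0.1% FBS), treated with compound 1 h at 37° C (0.5% DMSO), then stimulated 8 min with 500 ng/ml VEGF plus 2 mM Na3VO4. Lysate KDR phosphotyrosine measured by capture ELISA (anti-pY HRP, 450 nm); IC50 by four-parameter fit.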

[1] = tested on: human umbilical vein endothelial cells (HUVEC); assay: HUVEC+VEGF proliferation assay; assay type: cell-based; conditions: Homo sapiens, HUVEC, 72 h, VEGF 6 ng/mL, MTT
Summary of the method: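 Proliferation driven by VEGF (final 6 ng/mL) was quantified by MTT reduction (A595) 72 h after stimulation. Passage 3-4 HUVEC were starved for 24 h in 1% FBS F12K and given test agent 1 h before VEGF, with DMSO at 0.1% final.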

HUVEC = assay: bFGF HUVEC proliferation; assay type: cell-based, human; conditions: bFGF stimulated HUVEC

T1 sequence (P35968 20-1356): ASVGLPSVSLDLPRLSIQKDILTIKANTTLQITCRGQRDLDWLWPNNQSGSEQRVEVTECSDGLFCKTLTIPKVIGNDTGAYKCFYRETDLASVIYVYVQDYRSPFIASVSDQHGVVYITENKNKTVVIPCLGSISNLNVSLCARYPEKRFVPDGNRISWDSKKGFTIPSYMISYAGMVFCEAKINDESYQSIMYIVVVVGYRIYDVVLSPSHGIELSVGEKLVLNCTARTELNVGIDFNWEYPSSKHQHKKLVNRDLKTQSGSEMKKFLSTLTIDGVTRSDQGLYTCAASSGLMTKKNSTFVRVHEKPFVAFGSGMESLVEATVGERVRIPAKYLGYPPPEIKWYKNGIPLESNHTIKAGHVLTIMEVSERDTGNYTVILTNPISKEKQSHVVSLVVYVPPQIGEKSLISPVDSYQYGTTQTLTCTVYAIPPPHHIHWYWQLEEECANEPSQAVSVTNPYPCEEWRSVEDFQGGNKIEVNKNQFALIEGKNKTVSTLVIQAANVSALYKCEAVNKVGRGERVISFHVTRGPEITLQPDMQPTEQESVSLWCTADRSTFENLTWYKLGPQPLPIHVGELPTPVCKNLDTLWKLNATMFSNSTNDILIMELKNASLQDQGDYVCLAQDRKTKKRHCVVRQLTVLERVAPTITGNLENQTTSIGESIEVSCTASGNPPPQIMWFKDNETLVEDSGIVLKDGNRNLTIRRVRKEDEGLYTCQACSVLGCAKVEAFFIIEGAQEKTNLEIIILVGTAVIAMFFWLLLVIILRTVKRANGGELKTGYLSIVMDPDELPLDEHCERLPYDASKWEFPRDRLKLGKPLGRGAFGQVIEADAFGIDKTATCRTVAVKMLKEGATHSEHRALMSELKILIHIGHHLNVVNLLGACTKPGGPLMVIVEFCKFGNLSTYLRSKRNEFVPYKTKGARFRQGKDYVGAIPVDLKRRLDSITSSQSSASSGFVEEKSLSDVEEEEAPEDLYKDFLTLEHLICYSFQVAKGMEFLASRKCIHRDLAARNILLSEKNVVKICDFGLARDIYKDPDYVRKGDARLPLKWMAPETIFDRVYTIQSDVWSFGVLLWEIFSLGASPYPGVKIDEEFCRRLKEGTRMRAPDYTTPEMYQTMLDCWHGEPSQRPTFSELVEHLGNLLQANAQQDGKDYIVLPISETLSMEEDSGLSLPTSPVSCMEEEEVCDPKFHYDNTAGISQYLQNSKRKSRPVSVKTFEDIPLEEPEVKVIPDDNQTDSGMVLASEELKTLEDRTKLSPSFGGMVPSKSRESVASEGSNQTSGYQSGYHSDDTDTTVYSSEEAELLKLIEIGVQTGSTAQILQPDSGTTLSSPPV

Row | Structure (SMILES) | AUC (Mouse PK assay; 50 mg/kg) [ng·h/mL] | Cmax (Mouse PK assay; 50 mg/kg, p.o., 50 mg/kg) [ng/mL] | Mouse Cmin, po (Mouse PK assay) [ng/mL] | IC50 (KDR (VEGFR2)) | Mouse Cmax, po ng/mL (Mouse PK assay; p.o., 50 mg/kg) [ng/mL] | IC50 [1] [nM] | IC50 (HUVEC; Homo sapiens, HUVEC) [nM] | IC50 (HUVEC)
1 | C#CCNC(=O)n1c(C)cc2cc(Oc3ccnc4cc(C(=O)N5CC[C@@H](O)C5)sc34)ccc21 [Example 4o, 5-[2-(3R-Hydroxy-pyrrolidine-1-carbonyl)-thieno[3,2-b]pyridin-7-yloxy]-2-methyl-indole-1-carboxylic acid prop-2-ynylamide] | 28500 | 5070 | 825 | 0.012 nM and 0.009 nM |  | 0.071 | 7.9 | 
2 | C#CCNC(=O)n1c(C)cc2cc(Nc3ccnc4cc(C(=O)N5CC[C@@H](O)C5)sc34)ccc21 [Example 1o, 5-[2-(3R-Hydroxy-pyrrolidine-1-carbonyl)-thieno[3,2-b]pyridin-7-ylamino]-2-methyl-indole-1-carboxylic acid prop-2-ynylamide] | 219 | 100 | 6 | 1.6 nM |  | 0.34 | 49.6 | 52 nM
3 | CCOC(=O)c1csc(-c2cc3nccc(Nc4ccc5c(c4)cc(C)n5C(=O)NC)c3s2)n1 [Example 3c, 2-[7-(2-Methyl-1-methylcarbamoyl-1H-indol-5-ylamino)-thieno[3,2-b]pyridin-2-yl]-thiazole-4-carboxylic acid ethyl ester] |  |  | 0 | 0.1 nM and 0.041 nM | 0 | 2.33 | 184 | 262 nM
4 | CNC(=O)n1c(C)cc2cc(Oc3ccnc4cc(C(=O)N5C[C@H](OC)C[C@H]5CO)sc34)ccc21 [Example 3o, 5-[2-(2-Hydroxymethyl-4-methoxy-pyrrolidine-1-carbonyl)-thieno[3,2-b]pyridin-7-yloxy]-2-methyl-indole-1-carboxylic acid methylamide] | 2880 | 2820 | 20 | 0.43 nM and 0.52 nM |  | 0.24 | 246 | 

Second part, led by results:

Row | AUC (Mouse PK assay; 50 mg/kg) [ng·h/mL] | Cmax (Mouse PK assay; 50 mg/kg, p.o., 50 mg/kg) [ng/mL] | Mouse Cmin, po (Mouse PK assay) [ng/mL] | IC50 (KDR (VEGFR2)) | Mouse Cmax, po ng/mL (Mouse PK assay; p.o., 50 mg/kg) [ng/mL] | Structure (SMILES) | IC50 [1] [nM] | IC50 (HUVEC; Homo sapiens, HUVEC) [nM] | IC50 (HUVEC)
5 | 43 | 28 | 0 | 1.32 nM and 1.38 nM |  | Cc1cc2cc(Nc3ccnc4cc(C(=O)N5CCC[C@H]5CO)sc34)ccc2n1C(=O)NC1CC1 [Example 2e, 5-(2-[(S)-2-(hydroxymethyl)pyrrolidine-1-carbonyl]thieno[3,2-b]pyridin-7-ylamino)-2-methylindole-1-carboxylic acid cyclopropylamide] | 0.5 | 27.8 | 31.6 nM
6 | 46 | 19 | 2 | 2.6 nM |  | CO[C@@H]1C[C@@H](CO)N(C(=O)c2cc3cccc(Nc4ccc5c(c4)cc(C)n5C(=O)NC4CC4)c3s2)C1 [Example 3g, 5-[2-((2S,4R)-2-Hydroxymethyl-4-methoxy-pyrrolidine-1-carbonyl)-benzo[b]thiophen-7-ylamino]-2-methyl-indole-1-carboxylic acid cyclopropylamide] | 0.44 | 656 | 
7 | 6700 | 3700 | 35 | 0.67 nM and 0.42 nM (2×) |  | COC[C@@H]1CCCN1C(=O)c1cc2nccc(Nc3ccc4c(c3)cc(C)n4C(=O)NC3CC3)c2s1 [Example 2c, 5-(2-[(S)-2-(methoxymethyl)pyrrolidine-1-carbonyl]thieno[3,2-b]pyridin-7-ylamino)-2-methylindole-1-carboxylic acid cyclopropylamide] | 0.44 | 41 | 27 nM and 33 nM and 24 nM and 40 nM
8 | 44 | 24 | 2 | 1.85 nM |  | CNC(=O)n1c(C)cc2cc(Nc3cccc4cc(C(=O)N5C[C@H](OC)C[C@H]5CO)sc34)ccc21 [Example 3f, 5-[2-((2S,4R)-2-Hydroxymethyl-4-methoxy-pyrrolidine-1-carbonyl)-benzo[b]thiophen-7-ylamino]-2-methyl-indole-1-carboxylic acid methylamide] | 3.99 | 2050 | 
